Experimental data taken from patent publication US8747810B2, “Compositions and methods for imaging tissues, organs and tumors” (President and Fellows of Harvard College, priority 2009, dated 2014).

Molecular target: T1, σ1 receptor (Cavia porcellus, UniProt Q60492)
T1 construct: The membranes were prepared from guinea pig brain (minus cerebellum) as described above; from tissue; host or cells: guinea pig brain (minus cerebellum) membranes
Assay: σ1 receptor competition binding assay, [3H]-(+)-pentazocine
Parameters: species or system guinea pig
Conditions: quantity not named in table head; methods calculate apparent Ki (Cheng-Prusoff); read-out: σ-1
Description: […] See, Mol. Neuropharmacol. 1993, 3, 117-126.
The membranes were prepared from guinea pig brain (minus cerebellum) as described above and stored at −70° C. Twelve concentrations of the nonradioactive rhenium complexes ranging from 1×10^−11 to 1×10^−3 and protein samples (0.15 mg of membrane protein) were incubated with 5 nM [^3H]-(+)-pentazocine in a total volume of 0.25 mL of Tris-HCl (50 mM, pH 8.0). Incubations were carried out for 120 min at 25° C. All assays were terminated by dilution with 5 mL of ice-cold Tris-HCl (10 mM), pH 8.0, and solution were filtered through glass-fiber filters (Whatman GF/F; presoaked in 0.5% polyethyleneimine for 30 min at 25° C.). Filters were then washed three times with 5 mL of ice-cold Tris-HCl (50 mM, pH 8.0), and counted in Hionic-Fluor cocktail (Packard, Groningen, the Netherlands). The corresponding IC50 values were determined with Origin 6.0 software (OriginLab, Northampton, Mass.) and were used for the calculation of the apparent Ki values with the Cheng-Prusoff equation. See, Biochem. Pharmacol. 1973, 22, 3099-3108.

T1 sequence (Q60492 whole entry): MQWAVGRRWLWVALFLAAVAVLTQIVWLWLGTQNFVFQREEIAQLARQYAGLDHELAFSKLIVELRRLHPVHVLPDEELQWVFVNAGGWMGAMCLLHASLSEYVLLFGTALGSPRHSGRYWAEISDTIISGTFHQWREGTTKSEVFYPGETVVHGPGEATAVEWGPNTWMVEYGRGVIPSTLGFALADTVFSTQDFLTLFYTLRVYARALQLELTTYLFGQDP

Row | Compound | Ki
1 | COc1cc2c(cc1OC)CN(CCCCCCN1CC[S][Re]3(=[O])[S]CC[N]3C(=O)C1)CC2 (stereo not drawn) [Re-42] | 672 ± 17.6 nM
2 | O=C1CN(CCCCCCN2CCC(c3ccccc3)CC2)CC[S][Re]2(=[O])[S]CC[N]12 (stereo not drawn) [Re-40] | 30 ± 6.3 nM
3 | COc1cc2c(cc1OC)CN(CCCCCCN1CC[S][Re]3(=[O])[S]CC[N]3C(=O)C1)C2 (stereo not drawn) [Re-43] | 1480 ± 227 nM
4 | O=[C]=[Re-2]12(=[C]=O)(=[C]=O)[NH2+]CC[N+]1(CCCCCCN1CCC(c3ccccc3)CC1)Cc1ccccc1[O]2 (stereo not drawn) [Re-L16a] | 39.3 ± 1.43 nM

Molecular target: T2, σ2 receptor (Rattus norvegicus, UniProt Q5U3Y7)
T2 construct: Rat liver membranes were prepared from male Sprague-Dawley rat livers as previously described; from tissue; host or cells: rat (Sprague-Dawley) liver membranes
T2 sequence (Q5U3Y7 1-176): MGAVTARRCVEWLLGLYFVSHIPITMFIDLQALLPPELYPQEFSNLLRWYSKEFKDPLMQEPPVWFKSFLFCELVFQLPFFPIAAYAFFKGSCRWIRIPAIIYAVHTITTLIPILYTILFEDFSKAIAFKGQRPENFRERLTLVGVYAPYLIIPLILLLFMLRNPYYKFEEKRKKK
Assay: σ2 receptor competition binding assay, [3H]-DTG, rat liver membranes
Conditions: quantity not named in table head; methods calculate apparent Ki (Cheng-Prusoff); read-out: σ-2
Description: Rat liver membranes were prepared from male Sprague-Dawley rat livers as previously described (Eur. J. Pharmacol.-Mol. Pharmacol. Sect. 1994, 268, 9-18). The in vitro σ2 receptor binding affinities of rhenium coordinated complexes were determined in a competition assay using rat livers and [^3H]-DTG (31 Ci/mmol, NEN Life Science Inc., Cambridge, Mass.) as radioligand in the presence of 10 μM 1-pyrrolidinylethyl 3,4-dichlorophenylacetate oxalate (ACT915 oxalate) to mask σ1 receptors (Bioorg. & Med. Chem. Lett. 2000, 10, 17-18). Competition assays were performed with twelve concentrations of the nonradioactive rhenium complexes ranging from […] to 1×10^−3 and protein samples (0.15 mg of membrane protein) in a total volume of 0.25 mL of Tris-HCl (50 mM, pH 8.0) for 120 min at 25° C. All other manipulations and data analysis were performed as described vide supra for the σ1—receptor assays.

Row | Compound | Ki
5 | COc1cc2c(cc1OC)CN(CCCCCCN1CC[S][Re]3(=[O])[S]CC[N]3C(=O)C1)CC2 (stereo not drawn) [Re-42] | 12.1 ± 0.61 nM
6 | O=C1CN(CCCCCCN2CCC(c3ccccc3)CC2)CC[S][Re]2(=[O])[S]CC[N]12 (stereo not drawn) [Re-40] | 43.4 ± 0.99 nM
7 | COc1cc2c(cc1OC)CN(CCCCCCN1CC[S][Re]3(=[O])[S]CC[N]3C(=O)C1)C2 (stereo not drawn) [Re-43] | 11.5 ± 0.2 nM
8 | O=[C]=[Re-2]12(=[C]=O)(=[C]=O)[NH2+]CC[N+]1(CCCCCCN1CCC(c3ccccc3)CC1)Cc1ccccc1[O]2 (stereo not drawn) [Re-L16a] | 223 ± 8.78 nM

Test system: subcutaneous B16F10 melanoma tumor
Assay: Biodistribution of 99mTc complexes in mice bearing subcutaneous B16F10 melanoma tumor
Assay type: in vivo
Conditions: 1 h postinjection
Excerpt: Biodistribution of 99 mTc complexes in mice bearing subcutaneous B16F10 melanoma tumor was studied for complexes Tc-1-Tc-6.

Row | Compound | tumor uptake
9 | CCN(CC)CCN(Cc1ccccn1)Cc1ccccc1[O][99Tc].[C-]#[O+].[C-]#[O+].[C-]#[O+] [99 mTc-2] | 3.2 % ID/g

Same assay, conditions: mouse, in vivo

Row | Compound | tumor uptake and retention (in words)
10 | CCN(CC)CC[N+]12CC[N+](CC)(CC)[99Tc-5]1([C]#[O+])([C]#[O+])([C]#[O+])[O]c1ccccc1C2 (stereo not drawn) [99 mTc-6] | poor tumor uptake and retention
11 | [99Tc][O]c1ccccc1CN(CCN1CCCCC1)Cc1ccccn1.[C-]#[O+].[C-]#[O+].[C-]#[O+] [99 mTc-3] | increase in tumor retention over time
12 | [99Tc][O]c1ccccc1CN(CCCCCCN1CCCCC1)Cc1ccccn1.[C-]#[O+].[C-]#[O+].[C-]#[O+] [Tc-5] | increase in tumor retention over time
13 | [99Tc][O]c1ccccc1CN(CCCN1CCCCC1)Cc1ccccn1.[C-]#[O+].[C-]#[O+].[C-]#[O+] [Tc-4] | increase in tumor retention over time

Same assay, conditions: share of tumor uptake retained over 6 h

Row | Compound | tumor retention over a 6 h period
14 | CCN(CC)CCN(Cc1ccccn1)Cc1ccccc1[O][99Tc].[C-]#[O+].[C-]#[O+].[C-]#[O+] [99 mTc-2] | 65%

Molecular target: T3, 5HT1A receptor (Rattus norvegicus, UniProt P19327)
T3 construct: hippocampal homogenates that were prepared from Sprague Dawley rat hippocampus; from tissue; host or cells: rat (Sprague-Dawley) hippocampus membranes
T3 sequence (P19327 1-422): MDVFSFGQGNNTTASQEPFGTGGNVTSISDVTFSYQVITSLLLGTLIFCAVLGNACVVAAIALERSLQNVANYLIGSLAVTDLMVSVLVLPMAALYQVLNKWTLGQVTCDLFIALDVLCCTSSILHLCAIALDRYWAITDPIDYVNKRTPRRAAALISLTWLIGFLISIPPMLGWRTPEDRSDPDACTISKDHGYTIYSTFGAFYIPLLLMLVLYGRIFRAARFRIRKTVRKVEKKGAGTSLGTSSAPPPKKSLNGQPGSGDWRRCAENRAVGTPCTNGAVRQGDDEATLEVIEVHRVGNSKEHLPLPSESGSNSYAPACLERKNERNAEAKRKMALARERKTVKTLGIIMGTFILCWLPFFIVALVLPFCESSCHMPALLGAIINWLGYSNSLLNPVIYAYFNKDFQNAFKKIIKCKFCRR
Assay: 5HT1A receptor competition binding assay, [3H]-8-OH-DPAT, rat hippocampus
Conditions: quantity not named in table head; methods calculate apparent Ki (Cheng-Prusoff); read-out: 5HT1A
Description: The in vitro 5HT1A binding affinities of rhenium coordinated complexes were determined in a competition assay using rat hippocampus and high-affinity 5HT1A-ligand [^3H]-8-OH-DPAT (135 Ci/mmol, NEN Life Science Inc., Cambridge, Mass.). See, Brain Res. 1995, 673, 217-225.
Male Sprague-Dawley rats (weighing 150-170 g) were sacrificed using anesthesia agent isoflurane. The brains were rapidly removed, and hippocampus, frontal cortex, hypothalamus, and striatum were hand-dissected on ice and stored at −70° C. Tissue was thawed at room temperature and homogenized using a Brinkmann Polytron tissue disrupter in 50 volumes (wt/vol) of ice-cold 50 mM Tris-HCl buffer (pH 7.4). The suspension was centrifuged twice at 27,000 g for 20 min at 4° C. The membrane pellets were resuspended in 50 volumes of (wt/vol) Tris-HCl buffer and incubated at 37° C. for 20 min in a water bath, before a final centrifugation step (27,000 g; 20 min; 4° C.). The final tissue pellets were stored at −70° C. until assayed.
Twelve concentrations of the nonradioactive rhenium complexes ranging from 1×10^−11 to 1×10^−4 and protein samples (0.15 mg of membrane protein) were incubated with 1.5 nM [^3H]-8-OH-DPAT in a total volume of 0.25 mL of Tris-HCl (50 mM, pH 7.4, 10 mM MgSO4). Incubations were carried out for 60 min at 25° C. All assays were terminated by dilution with 5 mL of ice-cold Tris-HCl (10 mM), pH 7.4, and solution were filtered through glass-fiber filters (Whatman GF/F; presoaked in 0.5% polyethyleneimine for 30 min at 25° C.). Filters were then washed three times with 5 mL of ice-cold Tris-HCl (50 mM, pH 7.4), and counted in Hionic-Fluor cocktail (Packard, Groningen, the Netherlands). The corresponding IC50 values were determined with Origin 6.0 software (OriginLab, Northampton, Mass.) and were used for the calculation of the apparent Ki values with the Cheng-Prusoff equation. See, Biochem. Pharmacol. 1973, 22, 3099-3108.
Rhenium complexes were synthesized by the reaction of [ReBr(CO)3(C4H8O)]2 with the final ligands in acetonitrile at room temperature. The in vitro 5-HT1A binding affinities of complexes Re(CO)3-L1-L9 were determined in competitive receptor binding assay using hippocampal homogenates that were prepared from Sprague Dawley rat hippocampus and the high-affinity [^3H]-8-OH-DPAT as the 5HT1A specific ligand.
The in vitro affinity of Re(CO)3-L complexes for the 5-HT1A receptors were assessed by their ability to compete with the high affinity 5HT1A radioligand [^3H]-8-OH-DPAT.

Row | Compound | Ki
15 | O=[C]=[Re-2]12(=[C]=O)(=[C]=O)[NH2+]CC[N+]1(CCCCCCN1CCC(c3ccccc3)CC1)Cc1ccccc1[O]2 (stereo not drawn) [Re-L16a] | 629 ± 12 nM
